The source of these data is article PMC7125190, “Native/citrullinated LL37-specific T-cells help autoantibody production in Systemic Lupus Erythematosus” (Scientific Reports, 2020).

This experiment concerns pDCs. The experiment can be described thus: Stimulation of pDCs (IFN-α ELISA). Format: cell-based. To be noted: peptide premixed with human genomic DNA 10 µg/mL, 24 hours, Fig. S4B. From the text: Buffy coats of HD were from Centro Trasfusionale, Policlinico Umberto I, Rome, IT. After separation of mononuclear cells by Ficoll centrifugation, pDCs were purified as described[9],[10], by using the Diamond Plasmacytoid Dendritic Cell Isolation Kit (Miltenyi Biotec) to obtain 99% purity.
Antibodies and reagents for flow cytometry, confocal microscopy and immunohistochemistry Antibodies to CD4, CD8, CD3, conjugated with various fluorochromes [FITC, phycoerythrin (PE), peridinin-chlorophyll-protein (PerCp), allophycocyanin (APC), PE-Cy7] were from BD Biosciences or eBiosciences (San Diego, CA). For further LL37-specific T-cell characterization, FITC-, APC-, PE-, PerCp-, PerCpCy5.5-, APC-Cy7-, AlexaFluor488-conjugated CCR6, -CLA, -CXCR5 (FAB190), PD1, -ICOS, -CD38, CD19, CD20, CD27, CD138 antibodies were purchased from BD Biosciences, eBiosciences, Novus Biologicals (Littleton, CO), R&D (Minneapolis, MN), Invitrogen Life Technologies. […]
Purified pDCs were seeded into 96-well round-bottom plates at 3.5/5 × 10^4 cells per well in 200 μl RPMI 1640 (GIBCO), supplemented with 15% fetal calf serum (FCS), 1% Hepes and 1% sodium piruvate. […] IFN-α in supernatants was measured by enzyme linked immunosorbent assay (ELISA) (MabTech, France) after 24 hours. […]
A general note: ELISA stands for enzyme-linked immunosorbent assay.

“LLGDFFR(cit)KSKEKIGKEFKR(cit)IVQR(cit)IKDFLR(cit)NLVPR(cit)TES [cit-LL37, citrullinated LL37 (citrullinated at all five arginin positions)]”: the “adjuvant activity for DCs” value is recorded as “completely devoid of adjuvant activity for DCs”.
